In patent publication US20230085307A1, “PYRIDAZINONE COMPOUND AND HERBICIDE” (NISSAN CHEMICAL CORPORATION, priority 2019, published 2023):

Assays:
oval-leafed pondweed = experiment: Test Example 1: herbicidal activity, application before weed generation under submerged conditions (Table 16, symbol C); assay type: in vivo, oval-leafed pondweed (Monochoria vaginalis); conditions: 320 g/ha applied herbicide
Method in brief: (§1)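 Alluvial soil was flooded to 4 cm depth, weed seeds were sown mixed and 2.5-leaf rice seedlings were transplanted. On sowing day, the compound's emulsion, diluted in water to a set dose, was applied to the water surface. Plants grew at 25–30 °C and were scored 0–5 after three weeks.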

chickweed [1] = experiment: Test Example 5: herbicidal effect by foliage application, plastic box (Table 20, symbol P); assay type: in vivo, common chickweed (Stellaria media); conditions: foliage application, 320 g/ha, three weeks after application
Method in brief: (§2)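 Foliar spray test: emulsion formulation diluted in water to a set application rate, sprayed onto 14-day-old plants raised in diluvial soil at 25° C to 30° C under glass. Both herbicidal effect and crop effect rated visually three weeks later.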

green foxtail [2] = experiment: Test Example 4: herbicidal effect by soil treatment (Table 19, symbol G); assay type: in vivo, green foxtail (Setaria viridis); conditions: amount of applied herbicide 320 g/ha
Method in brief: (§3)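 Step 1: sow seeds in sterilized diluvial soil, cover ~1.5 cm. Step 2: spray diluted emulsion onto soil surface at predetermined rate. Step 3: greenhouse, 25–30° C, three weeks. Step 4: grade effect on each plant by earlier criteria.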

wild oat [3] = experiment: Test Example 5: herbicidal effect by foliage application, plastic box (Table 20, symbol I); assay type: in vivo, wild oat (Avena fatua); conditions: foliage application, 320 g/ha, three weeks after application
Method in brief: as §2

rice flat sedge = experiment: Test Example 3: herbicidal effect by foliage application, Wagner pot (Table 18, symbol E); assay type: in vivo, rice flat sedge (Cyperus iria); conditions: 320 g/ha
Method in brief: (§4)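 Plants were sown in alluvial soil held under 0.1–0.5 cm standing water and grown 14 days in a greenhouse at 25–30 °C. An emulsifiable formulation, water-diluted to the set dose, was then sprayed onto the foliage, and effects were scored three weeks later using previously defined criteria.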

Italian ryegrass [4] = experiment: Test Example 5: herbicidal effect by foliage application, plastic box (Table 20, symbol K); assay type: in vivo, Italian ryegrass (Lolium multiflorum); conditions: foliage application, 320 g/ha, three weeks after application
Method in brief: as §2

southern crabgrass [5] = experiment: Test Example 4: herbicidal effect by soil treatment (Table 19, symbol F); assay type: in vivo, southern crabgrass (Digitaria ciliaris); conditions: amount of applied herbicide 320 g/ha
Method in brief: as §3

lambsquarters [6] = experiment: Test Example 5: herbicidal effect by foliage application, plastic box (Table 20, symbol O); assay type: in vivo, lambsquarters (Chenopodium album); conditions: foliage application, 320 g/ha, three weeks after application
Method in brief: as §2

false cleavers [7] = experiment: Test Example 4: herbicidal effect by soil treatment (Table 19, symbol Q); assay type: in vivo, false cleavers (Galium spurium); conditions: amount of applied herbicide 320 g/ha
Method in brief: as §3

velvetleaf [8] = experiment: Test Example 4: herbicidal effect by soil treatment (Table 19, symbol M); assay type: in vivo, velvetleaf (Abutilon theophrasti); conditions: amount of applied herbicide 320 g/ha
Method in brief: as §3

chickweed [9] = experiment: Test Example 4: herbicidal effect by soil treatment (Table 19, symbol P); assay type: in vivo, common chickweed (Stellaria media); conditions: amount of applied herbicide 320 g/ha
Method in brief: as §3

barnyard grass [10] = experiment: Test Example 5: herbicidal effect by foliage application, plastic box (Table 20, symbol H); assay type: in vivo, barnyard grass (Echinochloa crus-galli); conditions: foliage application, 320 g/ha, three weeks after application
Method in brief: as §2

Italian ryegrass [11] = experiment: Test Example 4: herbicidal effect by soil treatment (Table 19, symbol K); assay type: in vivo, Italian ryegrass (Lolium multiflorum); conditions: amount of applied herbicide 320 g/ha
Method in brief: as §3

persian speedwell [12] = experiment: Test Example 5: herbicidal effect by foliage application, plastic box (Table 20, symbol R); assay type: in vivo, Persian speedwell (Veronica persica); conditions: foliage application, 320 g/ha, three weeks after application
Method in brief: as §2

blackgrass [13] = experiment: Test Example 5: herbicidal effect by foliage application, plastic box (Table 20, symbol J); assay type: in vivo, blackgrass (Alopecurus myosuroides); conditions: foliage application, 320 g/ha, three weeks after application
Method in brief: as §2

persian speedwell [14] = experiment: Test Example 4: herbicidal effect by soil treatment (Table 19, symbol R); assay type: in vivo, Persian speedwell (Veronica persica); conditions: amount of applied herbicide 320 g/ha
Method in brief: as §3

barnyard grass [15] = experiment: Test Example 4: herbicidal effect by soil treatment (Table 19, symbol H); assay type: in vivo, barnyard grass (Echinochloa crus-galli); conditions: amount of applied herbicide 320 g/ha
Method in brief: as §3

green foxtail [16] = experiment: Test Example 5: herbicidal effect by foliage application, plastic box (Table 20, symbol G); assay type: in vivo, green foxtail (Setaria viridis); conditions: foliage application, 320 g/ha, three weeks after application
Method in brief: as §2

late watergrass = experiment: Test Example 1: herbicidal activity, application before weed generation under submerged conditions (Table 16, symbol A); assay type: in vivo, late watergrass (Echinochloa oryzicola); conditions: 320 g/ha applied herbicide
Method in brief: as §1

blackgrass [17] = experiment: Test Example 4: herbicidal effect by soil treatment (Table 19, symbol J); assay type: in vivo, blackgrass (Alopecurus myosuroides); conditions: amount of applied herbicide 320 g/ha
Method in brief: as §3

redroot pigweed [18] = experiment: Test Example 5: herbicidal effect by foliage application, plastic box (Table 20, symbol N); assay type: in vivo, redroot pigweed (Amaranthus retroflexus); conditions: foliage application, 320 g/ha, three weeks after application
Method in brief: as §2

velvetleaf [19] = experiment: Test Example 5: herbicidal effect by foliage application, plastic box (Table 20, symbol M); assay type: in vivo, velvetleaf (Abutilon theophrasti); conditions: foliage application, 320 g/ha, three weeks after application
Method in brief: as §2

southern crabgrass [20] = experiment: Test Example 5: herbicidal effect by foliage application, plastic box (Table 20, symbol F); assay type: in vivo, southern crabgrass (Digitaria ciliaris); conditions: foliage application, 320 g/ha, three weeks after application
Method in brief: as §2

windgrass [21] = experiment: Test Example 5: herbicidal effect by foliage application, plastic box (Table 20, symbol L); assay type: in vivo, windgrass (Apera spica-venti); conditions: foliage application, 320 g/ha, three weeks after application
Method in brief: as §2

barnyard grass [22] = experiment: Test Example 3: herbicidal effect by foliage application, Wagner pot (Table 18, symbol H); assay type: in vivo, barnyard grass (Echinochloa crus-galli); conditions: 320 g/ha
Method in brief: as §4

lambsquarters [23] = experiment: Test Example 4: herbicidal effect by soil treatment (Table 19, symbol O); assay type: in vivo, lambsquarters (Chenopodium album); conditions: amount of applied herbicide 320 g/ha
Method in brief: as §3

wild oat [24] = experiment: Test Example 4: herbicidal effect by soil treatment (Table 19, symbol I); assay type: in vivo, wild oat (Avena fatua); conditions: amount of applied herbicide 320 g/ha
Method in brief: as §3

windgrass [25] = experiment: Test Example 4: herbicidal effect by soil treatment (Table 19, symbol L); assay type: in vivo, windgrass (Apera spica-venti); conditions: amount of applied herbicide 320 g/ha
Method in brief: as §3

Chinese sprangletop = experiment: Test Example 3: herbicidal effect by foliage application, Wagner pot (Table 18, symbol D); assay type: in vivo, chinese sprangletop (Leptochloa chinensis); conditions: 320 g/ha
Method in brief: as §4

false cleavers [26] = experiment: Test Example 5: herbicidal effect by foliage application, plastic box (Table 20, symbol Q); assay type: in vivo, false cleavers (Galium spurium); conditions: foliage application, 320 g/ha, three weeks after application
Method in brief: as §2

Japanese bulrush = experiment: Test Example 1: herbicidal activity, application before weed generation under submerged conditions (Table 16, symbol B); assay type: in vivo, Japanese bulrush (Schoenoplectus juncoides); conditions: 320 g/ha applied herbicide
Method in brief: as §1

redroot pigweed [27] = experiment: Test Example 4: herbicidal effect by soil treatment (Table 19, symbol N); assay type: in vivo, redroot pigweed (Amaranthus retroflexus); conditions: amount of applied herbicide 320 g/ha
Method in brief: as §3

## CCCC(=O)Oc1c(C)nn(C)c(=O)c1-c1c(-c2ccc(N(C)C)cc2)sc2ccccc12 [1-040]
oval-leafed pondweed
  Herbicidal effect on C: oval-leafed pondweed (grade 0-5): 1 (Herbicidal rate of 5% or more and less than 20%)
Chickweed [1]
  herbicidal effect grade, P: chickweed: 5 (Herbicidal rate of 90% or more (almost completely withered))
Green foxtail [2]
  herbicidal effect rating, G: green foxtail: 0 (Herbicidal rate of 5% or less (almost no effect))
Wild oat [3]
  herbicidal effect grade, I: wild oat: 0 (Herbicidal rate of 5% or less (almost no effect))
Rice flat sedge
  herbicidal effect on E (rice flat sedge), rating 0-5: 5 (Herbicidal rate of 90% or more (almost completely withered))
Italian ryegrass [4]
  herbicidal effect grade, K: Italian ryegrass: 4 (Herbicidal rate of 70% or more and less than 90%)
Southern crabgrass [5]
  herbicidal effect rating, F: southern crabgrass: 0 (Herbicidal rate of 5% or less (almost no effect))
Lambsquarters [6]
  herbicidal effect grade, O: lambsquarters: 4 (Herbicidal rate of 70% or more and less than 90%)
False cleavers [7]
  herbicidal effect rating, Q: false cleavers: 0 (Herbicidal rate of 5% or less (almost no effect))
Velvetleaf [8]
  herbicidal effect rating, M: velvetleaf: 0 (Herbicidal rate of 5% or less (almost no effect))
Chickweed [9]
  herbicidal effect rating, P: chickweed: 0 (Herbicidal rate of 5% or less (almost no effect))
Barnyard grass [10]
  herbicidal effect grade, H: barnyard grass: 3 (Herbicidal rate of 40% or more and less than 70%)
Italian ryegrass [11]
  herbicidal effect rating, K: Italian ryegrass: 3 (Herbicidal rate of 40% or more and less than 70%)
Persian speedwell [12]
  herbicidal effect grade, R: persian speedwell: 5 (Herbicidal rate of 90% or more (almost completely withered))
Blackgrass [13]
  herbicidal effect grade, J: blackgrass: 0 (Herbicidal rate of 5% or less (almost no effect))
Persian speedwell [14]
  herbicidal effect rating, R: persian speedwell: 0 (Herbicidal rate of 5% or less (almost no effect))
Barnyard grass [15]
  herbicidal effect rating, H: barnyard grass: 0 (Herbicidal rate of 5% or less (almost no effect))
Green foxtail [16]
  herbicidal effect grade, G: green foxtail: 5 (Herbicidal rate of 90% or more (almost completely withered))
Late watergrass
  Herbicidal effect on A: late watergrass (grade 0-5): 3 (Herbicidal rate of 40% or more and less than 70%)
Blackgrass [17]
  herbicidal effect rating, J: blackgrass: 0 (Herbicidal rate of 5% or less (almost no effect))
Redroot pigweed [18]
  herbicidal effect grade, N: redroot pigweed: 5 (Herbicidal rate of 90% or more (almost completely withered))
Velvetleaf [19]
  herbicidal effect grade, M: velvetleaf: 5 (Herbicidal rate of 90% or more (almost completely withered))
Southern crabgrass [20]
  herbicidal effect grade, F: southern crabgrass: 4 (Herbicidal rate of 70% or more and less than 90%)
Windgrass [21]
  herbicidal effect grade, L: windgrass: 0 (Herbicidal rate of 5% or less (almost no effect))
Barnyard grass [22]
  herbicidal effect on H (barnyard grass), rating 0-5: 4 (Herbicidal rate of 70% or more and less than 90%)
Lambsquarters [23]
  herbicidal effect rating, O: lambsquarters: 0 (Herbicidal rate of 5% or less (almost no effect))
Wild oat [24]
  herbicidal effect rating, I: wild oat: 0 (Herbicidal rate of 5% or less (almost no effect))
Windgrass [25]
  herbicidal effect rating, L: windgrass: 0 (Herbicidal rate of 5% or less (almost no effect))
Chinese sprangletop
  herbicidal effect on D (Chinese sprangletop), rating 0-5: 3 (Herbicidal rate of 40% or more and less than 70%)
False cleavers [26]
  herbicidal effect grade, Q: false cleavers: 3 (Herbicidal rate of 40% or more and less than 70%)
Japanese bulrush
  Herbicidal effect on B: Japanese bulrush (grade 0-5): 3 (Herbicidal rate of 40% or more and less than 70%)
Redroot pigweed [27]
  herbicidal effect rating, N: redroot pigweed: 0 (Herbicidal rate of 5% or less (almost no effect))
